A short description of series [1]: In vitro cytotoxicity, MTT-based cell viability assay. On the set-up: species or system murine. Conditions: mouse, 3T6 embryonal fibroblast cells (adherent); 3T6 murine embryonal fibroblast cell line, MTT, triplicate, mean. On the procedure: (§1) In vitro cytotoxicity assays with established cell lines are useful tools for the general screening of chemicals in toxicological studies. […] The procedure, according to the manufacturer recommendations, was based on the colorimetric determination of the succinate dehydrogenase activity by visualization (540 nm) of the conversion of a tetrazolium salt into formazan. With a microplate reader (Thermo Labsystems Multiskan Ascent 354, Waltham, MA, USA), the optical density of each well was measured at 540 nm against the background absorbance whose reference filter was set at 690 nm. Blank controls (culture medium), free-drug controls, and solvent (DMSO) controls were included in each assay. All cytotoxicity assays were set up in triplicate. […] The IC50 parameters were obtained by plotting % inhibition values against the logarithm of concentration for each compound.
(§2) For each compound, the % inhibition of activity against the concentration scale was plotted. The 50% inhibiting concentrations of cell proliferation (IC50) were calculated by locating the x-axis values corresponding to one-half of the absorbance values. The experiments were repeated in triplicate for each substance.

Series [2] in a line: Visual observations of treated rats (behavior, injection site). The format is in vivo, rat. Conditions: for Cutaneous reaction at the site of injections: subcutaneous treatment, data not shown.
For series [3], the system named is Pneumocystis carinii. Description: In vivo anti-Pneumocystis activity, P. carinii pneumonia in nude rats. Conditions: for % of inhibition versus control rats: once a day for 10 days, P. carinii count in lung homogenates; for In vivo anti-Pneumocystis activity: subcutaneous, 5 and 20 mg/kg/day, 10 days. On the set-up: species or system athymic Lou nu/nu rats. On the procedure:
To evaluate the in vivo anti-Pneumocystis activity, drug stock solutions in DMSO (300 mg/mL) were diluted in phosphate buffered saline (PBS, BioWhittaker) to produce the required final drug concentrations just before subcutaneous injection. Seven weeks p.i., animals were divided into groups of 4, and then pentamidine and derivatives 4 and 6 were dosed at 5 or 20 mg/kg by subcutaneous route. The drugs were given once a day for 10 consecutive days. The final concentration of DMSO in diluted drug solutions was maintained between 1.5% and 6%. Control animals received doses of 6%-DMSO in sterile water. Twenty-four hours after the end of the treatment, animals were euthanatized and the lung homogenised in a Stomacher-400 blender as previously described. Quantitation of trophic forms, sporocytes, and cysts was performed on air-dried smears stained with RAL-555 stain [34, 37, 38]. Therapeutic efficacy was assessed by counting P. carinii parasites in lung homogenates and comparing them with those of the untreated controls at the end of the experiment. The results were expressed as percentage of inhibition versus drug-free animal controls and presented as mean and standard error. Data were analyzed using a two-way analysis of variance (PROC MIXED, SAS Institute, Cary, NC, USA), with sex, drug, and their interaction as independent predictors. Due to heterogeneity in parasites count distributions, the first step of the analysis was the selection of the within-subject covariance, based either on likelihood ratio tests or on the Bayesian Information Criterion. Then, tests of the fixed effects were performed. No interaction was found between sex and drug. Therapeutic efficacy was assessed with polynomial contrasts. Regression underlying assumptions were visually inspected with residual plots. Statistical significance was set at α = 0.05.
An in vivo experiment was performed in order to explore whether it reflected in vitro results. The used in vivo model was the athymic Pneumocystis-free Lou nu/nu rats non-surgically inoculated by endo-tracheal route with a suspension of P. carinii organisms. […] Rats developed high infection levels 6–8 weeks post inoculation without secondary fungal or bacterial infection. […] Thus animals were endotracheally infected after 2 weeks of dexamethasone administration (1 mg/L, drinking water) with 10^7 P. carinii organisms. Drugs were administered once a day by subcutaneous route for 10 consecutive days. Untreated animals developed extensive infections at the end of the treatment period. The number of total P. carinii organisms per lung in DMSO control rats was 1.26 ± 0.20 × 10^10. […] On the other hand, whereas showing a strong anti-Pneumocystis activity in vitro, the monoamidine 7 appeared to be poorly potent when administered subcutaneously to Pneumocystis-infected rats, even at the dose of 20 mg/kg/day.

Series [4] has as its system Pneumocystis carinii. Description: In vitro anti-Pneumocystis activity, P. carinii axenic short culture (4 days). The format is cell-based. To be noted: for inhibition of growth at 50 µg/mL / inhibition of growth at 0.1 µg/mL / inhibition of growth at 10 µg/mL / EC50: Pneumocystis carinii, 96 h; for inhibition of growth at 50 µg/mL / Anti-Pneumocystis activity % inhibition vs. free-drug control at 0.1 µg/mL / Anti-Pneumocystis activity % inhibition vs. free-drug control at 10 µg/mL / Anti-Pneumocystis activity % inhibition vs. free-drug control at 50 µg/mL: 4 days axenic culture; for inhibition of growth at 50 µg/mL: read-out: Anti-Pneumocystis activity % inhibition vs. free-drug control at 50 µg/mL; for inhibition of growth at 0.1 µg/mL: read-out: Anti-Pneumocystis activity % inhibition vs. free-drug control at 0.1 µg/mL, 0.1 µg/mL, 4 days axenic culture; for inhibition of growth at 10 µg/mL: read-out: Anti-Pneumocystis activity % inhibition vs. free-drug control at 10 µg/mL, 10 µg/mL, 4 days axenic culture; for EC50: 150 to 1.35 10^-5 µM, read-out: EC50 against P. carinii. On the procedure: Drug stock solutions in DMSO (10 mg/mL) were diluted in Dulbecco's Modified Eagle's Medium (DMEM, BioWhittaker) supplemented with 10% heat-inactivated foetal calf serum (FCS, Gibco-BRL) to produce the required drug concentrations. P. carinii axenic short cultures were performed as follows. All the experiments were carried out in 24-well plates with a final volume of 2 mL of DMEM supplemented with 10% of heat-inactivated fetal calf serum (FCS) containing a final inoculum of 10^6 organisms per mL. Plates were incubated for 4 days in an atmosphere of 5% CO2 at 37 °C. Then, P. carinii organisms were collected and quantified after RAL-555 panoptic staining. In parallel with these free-drug growth control wells, the anti-Pneumocystis effect of pentamidine and the other bisbenzamidines considered in this study was investigated in the same conditions. All molecules have been screened at a high (50 µg/mL), a medium (10 µg/mL), and a low (0.1 µg/mL) concentration. All experiments were performed in triplicate and data were statistically processed using Student’s t-test. Two-sided p-values < 0.05 were deemed to be statistically significant.
The parameters of this pharmacodynamic model were calculated by nonlinear least-squares regression techniques using commercial software (Sigma Plot, Systat Software Inc., San Jose, CA, USA).

Series [5] deals with 3T6 fibroblast cell line. Description: In vitro cytotoxicity, MTT-based cell viability assay. Also on record: species or system murine. To be noted: for Cytotoxicity: 3T6 cell line; for IC50 fold higher than for the reference compound (pentamidine): 3T6 cytotoxicity. On the procedure: as §1, §2
Details of series [6]: method as in PMID 21147326. Conditions: in comparison with pentamidine and the diamidine 6; cited from earlier work.
[7] abbreviates: Hill equation, 4 days of culture.

This is an account of results in paper PMC3816707, “Diamidines versus Monoamidines as Anti-Pneumocystis Agents: An in vivo Study” (Pharmaceuticals, 2013).

Where a name gives a salt, the structure may show the parent alone.

As a reminder, the melting point is the temperature of the solid-liquid transition. In the case of `CN(CCNc1ccccc1)c1ccc(C(=N)N)cc1` (as salt: hydrochloride) [Compound 9, N-(Benzamidine-4-yl)-N-methyl-N′-phenylethane-1,2-diamine hydrochloride salt], the melting point was in the range of 212 to 215 °C.
The compound `N=C(N)c1ccc(NCCNc2ccccc2)cc1` (as salt: sulfate) [Compound 7, N-(Benzamidine-4-yl)-N′-phenylethane-1,2-diamine sulfate salt] showed a melting point of 191 to 193 °C.
Usually IC50 stands for the concentration at which inhibition is half-maximal. For orientation: EC50 means the midpoint of the concentration-response curve. The compound `N=C(N)c1ccc(OCCCCCOc2ccc(C(=N)N)cc2)cc1` [Compound 1, pentamidine, reference compound] returned an IC50 in series [1] of 1.98 ± 0.2 µM. For the same compound, in series [2], the “Cutaneous reaction at the site of injections” value was “deleterious wounds could be seen on the skin”. In addition, in series [3] (5 mg/kg/day subcutaneous), the “% of inhibition versus control rats” value is recorded as 84.6%. Further, in series [3] (20 mg/kg/day subcutaneous), the “% of inhibition versus control rats” value is 95.3%. Besides, in series [4] (setting [7]), the “Slope S (steepness of the concentration-effect curve)” value (“Slope S” below) stood at 1.09 ± 0.23 and the 50% effective concentration (EC50) came to 0.08 ± 0.01 µM. Further, in series [4], the inhibition of growth at 50 µg/mL was 99 ± 0.1%, the inhibition of growth at 0.1 µg/mL amounted to 89% and the inhibition of growth at 10 µg/mL is 99 ± 0.1%.
As to `N=C(N)c1ccc(N2CCN(c3ccccc3)CC2)cc1` [Compound 3], it took 56.06 ± 0.39 µM to reach half-maximal inhibition in series [1] (IC50). In series [4], the inhibition of growth at 50 µg/mL was determined as 99 ± 0.1%, the inhibition of growth at 0.1 µg/mL amounted to 8.3 ± 14.4% and the inhibition of growth at 10 µg/mL is 99 ± 0.1%.
Consider `Nc1ccc(N2CCN(c3ccc(N)cc3)CC2)cc1` [Compound 4], for which 40.8 ± 4.4 µM corresponded to half-maximal inhibition in series [1] (IC50). Moreover, in series [4], the “Anti-Pneumocystis activity % inhibition vs. free-drug control at 0.1 µg/mL” value is “inactive”, the “Anti-Pneumocystis activity % inhibition vs. free-drug control at 10 µg/mL” value is “inactive” and the “Anti-Pneumocystis activity % inhibition vs. free-drug control at 50 µg/mL” value is “inactive”.
The compound `Nc1ccc(N2CCN(c3ccccc3)CC2)cc1` [Compound 5, 1-(4-Aminophenyl)-4-phenylpiperazine] came in with a melting point of 146 to 149 °C. In series [1], this compound had an IC50 of 10.2 ± 0.6 µM. Also, in series [4], the “Anti-Pneumocystis activity % inhibition vs. free-drug control at 0.1 µg/mL” value is “inactive”, the “Anti-Pneumocystis activity % inhibition vs. free-drug control at 10 µg/mL” value is “inactive” and the “Anti-Pneumocystis activity % inhibition vs. free-drug control at 50 µg/mL” value was “inactive”.
On to `N=C(N)c1ccc(NCCNc2ccc(C(=N)N)cc2)cc1` [Compound 6, N,N′-bis(benzamidine-4-yl)ethane-1,2-diamine], for which the IC50 in series [1] was 30.2 ± 1.14 µM. In series [5], the “Cytotoxicity” value is “no cytotoxicity” and the “IC50 fold higher than for the reference compound (pentamidine)” value turned out to be 15 fold. Besides, the “Cutaneous reaction at the site of injections” value in series [2] was “did not develop any cutaneous reaction”. Moreover, the “Behavior during the treatment” value in series [2] (visual observations) was “quite normal behavior”. Besides, in series [3] (5 mg/kg/day subcutaneous), the “% of inhibition versus control rats” value is listed as 78.4%. The “% of inhibition versus control rats” value in series [3] (20 mg/kg/day subcutaneous) came to 86.2%. In addition, in series [3], the “In vivo anti-Pneumocystis activity” value is listed as “strong anti-Pneumocystis activity comparable to that of pentamidine at both doses”. In addition, in series [4] (setting [7]), the “Slope S” value was found to be 1.49 ± 0.31 and the EC50 amounted to 0.6 ± 0.12 µM. For the same compound, in series [4], the inhibition of growth at 50 µg/mL was found to be 98.7 ± 0.6%, the inhibition of growth at 0.1 µg/mL was found to be 29.8 ± 19.7% and the inhibition of growth at 10 µg/mL came to 97.7 ± 0.6%.
What is called Emax is the greatest response seen or fitted, relative to the assay's reference. With `N=C(N)c1ccc(NCCNc2ccccc2)cc1` [Compound 7, N-(Benzamidine-4-yl)-N′-phenylethane-1,2-diamine sulfate salt], half-maximal inhibition in series [1] (IC50) required 40.6 ± 1.3 µM. In series [5], the “Cytotoxicity” value is “no cytotoxicity” and the “IC50 fold higher than for the reference compound (pentamidine)” value turned out to be 20 fold. In series [6], the “Elimination from plasma” value is given as “more rapidly eliminated from plasma”. Also, the “% of inhibition versus control rats” value in series [3] (5 mg/kg/day subcutaneous) is reported as 43.1%. Moreover, the “% of inhibition versus control rats” value in series [3] (20 mg/kg/day subcutaneous) worked out at 54.3%. Besides, the “In vivo anti-Pneumocystis activity” value in series [3] was “poorly potent”. In series [4] (setting [7]), the “Slope S” value worked out at 2.00 ± 0.54 and the concentration giving a half-maximal response (EC50) worked out at 0.4 ± 0.08 µM. The same compound displayed an Emax in series [4] (Hill equation, maximum effect, 4 days of culture) of 99.37 ± 2.54%. In addition, in series [4], the inhibition of growth at 50 µg/mL stood at 99.5 ± 0.4%, the inhibition of growth at 0.1 µg/mL came out at 42 ± 12.5% and the inhibition of growth at 10 µg/mL stood at 98.7 ± 0.6%.
`CN(CCNc1ccc(C(=N)N)cc1)c1ccc(C(=N)N)cc1` [Compound 8] displayed an IC50 in series [1] of 2.48 ± 0.35 µM. Moreover, the “Cytotoxicity” value in series [5] is recorded as “cytotoxicity similar to that of pentamidine”. Besides, in series [4], the inhibition of growth at 50 µg/mL worked out at 99%, the inhibition of growth at 0.1 µg/mL was 15 ± 12.5% and the inhibition of growth at 10 µg/mL came out at 99%.
As to `CN(CCNc1ccccc1)c1ccc(C(=N)N)cc1` [Compound 9, N-(Benzamidine-4-yl)-N-methyl-N′-phenylethane-1,2-diamine hydrochloride salt], in series [1], the IC50 came out at 3.11 ± 0.09 µM. Moreover, the “Cytotoxicity” value in series [5] is reported as “cytotoxicity similar to that of pentamidine”. Further, in series [4], the “Anti-Pneumocystis activity % inhibition vs. free-drug control at 0.1 µg/mL” value was “inactive”, the inhibition of growth at 50 µg/mL turned out to be 88.7 ± 2.5% and the inhibition of growth at 10 µg/mL worked out at 86.3 ± 4%.
